# From patent US20050208496A1, “Methods of testing for bronchial asthma or chronic obstructive pulmonary disease” (Genox Research, Inc., priority 2002, published 2005)
# Test system: respiratory epithelial cells
substance,measurement,setting,value
"IL-13: human IL-13 (Peprotech, Inc.) added to the medium at 50 ng/mL to stimulate respiratory epithelial cells","CH25H (32363_at) expression, fold change upon IL-13 stimulation","lot 1, Day 3, IMM method",8.9 fold
same,"CTSC (133_at) expression, fold change upon IL-13 stimulation","lot 1, Day 3, IMM method",4.7 fold
same,CXCL16 (44095_at) expression fold change,"lot 1, Day 3, IMM method",2.5 fold
same,"DD96 (31610_at) expression, fold change upon IL-13 stimulation","lot 1, Day 3, IMM method",11.4 fold
same,"DDIT3 (39420_at) expression, fold change upon IL-13 stimulation","lot 1, Day 3, IMM method",2.3 fold
same,"DKFZP564O0823 (41402_at) expression, fold change upon IL-13 stimulation","lot 1, Day 3, IMM method",6.7 fold
same,DKFZP566J091 (57197_at) expression fold change,"lot 1, Day 3, IMM method",8.2 fold
same,DPYD (38220_at) expression fold change upon IL-13 stimulation,"lot 1, Day 3, IMM method",7.5 fold
same,EMILIN-2 (51628_at) expression fold change,"lot 1, Day 3, IMM method",2.8 fold
same,"FABP4 (38430_at) expression, fold change upon IL-13 stimulation","lot 1, Day 3, IMM method",2.6 fold
same,FETUB (32620_at) expression fold change,"lot 1, Day 3, IMM method",4.1 fold
same,FLJ10261 (43366_at) expression fold change,"lot 1, Day 3, IMM method",8.2 fold
same,FLJ10261 (43963_at) expression fold change,"lot 1, Day 3, IMM method",6.6 fold
same,FLJ22693 (53777_at) expression fold change,"lot 1, Day 3, IMM method",2.1 fold
same,FUT10 (908_at) expression fold change upon IL-13 stimulation,"lot 1, Day 3, IMM method",4 fold
same,"G1P3 (1358_s_at) expression, fold change upon IL-13 stimulation","lot 1, Day 3, IMM method",7.1 fold
same,GBP5 (52615_at) expression fold change,"lot 1, Day 3, IMM method",2.5 fold
same,HDAC9 (37483_at) expression fold change upon IL-13 stimulation,"lot 1, Day 3, IMM method",3.1 fold
same,"HLA-F (37420_i_at) expression, fold change upon IL-13 stimulation","lot 1, Day 3, IMM method",3 fold
same,HLA-F (49203_f_at) expression fold change,"lot 1, Day 3, IMM method",3.1 fold
same,HS3ST1 (41556_s_at) expression fold change upon IL-13 stimulation,"lot 1, Day 3, IMM method",2.2 fold
same,"IFI27 (425_at) expression, fold change upon IL-13 stimulation","lot 1, Day 3, IMM method",4.5 fold
same,IFI27 (48864_at) expression fold change,"lot 1, Day 3, IMM method",4 fold
same,"IFI35 (464_s_at) expression, fold change upon IL-13 stimulation","lot 1, Day 3, IMM method",9.6 fold
same,"IFI44 (37641_at) expression, fold change upon IL-13 stimulation","lot 1, Day 3, IMM method",8 fold
same,"IFIT1 (915_at) expression, fold change upon IL-13 stimulation","lot 1, Day 3, IMM method",9.9 fold
same,"IFIT1 (32814_at) expression, fold change upon IL-13 stimulation","lot 1, Day 3, IMM method",7.6 fold
same,"IFIT4 (38584_at) expression, fold change upon IL-13 stimulation","lot 1, Day 3, IMM method",10.4 fold
same,"IFITM1 (675_at) expression, fold change upon IL-13 stimulation","lot 1, Day 3, IMM method",19.9 fold
same,IL13RA2 (1016_s_at) expression fold change upon IL-13 stimulation,"lot 1, Day 3, IMM method",5.1 fold
same,IL19 (47855_at) expression fold change,"lot 1, Day 3, IMM method",9.1 fold
same,"ILIRL1 (40322_at) expression, fold change upon IL-13 stimulation","lot 1, Day 3, IMM method",2.6 fold
same,IRF7 (36412_s_at) expression fold change,"lot 1, Day 3, IMM method",2.5 fold
same,"ISG15 (1107_s_at) expression, fold change upon IL-13 stimulation","lot 1, Day 3, IMM method",8.2 fold
same,"ISG15 (38432_at) expression, fold change upon IL-13 stimulation","lot 1, Day 3, IMM method",27.9 fold
same,"ISG20 (33304_at) expression, fold change upon IL-13 stimulation","lot 1, Day 3, IMM method",2.4 fold
same,"KIAA0537 (33787_at) expression, fold change upon IL-13 stimulation","lot 1, Day 3, IMM method",5.8 fold
same,KIAA1268 (57050_at) expression fold change,"lot 1, Day 3, IMM method",2.8 fold
same,KRT16 (601_s_at) expression fold change,"lot 1, Day 3, IMM method",4.6 fold
same,"LAMP3 (37168_at) expression, fold change upon IL-13 stimulation","lot 1, Day 3, IMM method",3.6 fold
same,LOC57118 (51085_at) expression fold change,"lot 1, Day 3, IMM method",3 fold
same,"LOC64116 (40456_at) expression, fold change upon IL-13 stimulation","lot 1, Day 3, IMM method",2.9 fold
same,MDA5 (51920_at) expression fold change,"lot 1, Day 3, IMM method",5.2 fold
same,"MMP7 (668_s_at) expression, fold change upon IL-13 stimulation","lot 1, Day 3, IMM method",2.2 fold
same,MX2 (879_at) expression fold change,"lot 1, Day 3, IMM method",8 fold
same,MXI (37014_at) expression fold change,"lot 1, Day 3, IMM method",10.6 fold
same,NK4 (39119_s_at) expression fold change upon IL-13 stimulation,"lot 1, Day 3, IMM method",2 fold
same,NOS2A (1948_f_at) expression fold change upon IL-13 stimulation,"lot 1, Day 3, IMM method",4.3 fold
same,"OAF (39695_at) expression, fold change upon IL-13 stimulation","lot 1, Day 3, IMM method",3.8 fold
same,OAS1 (38388_at) expression fold change upon IL-13 stimulation,"lot 1, Day 3, IMM method",5.5 fold
same,OAS1 (38389_at) expression fold change upon IL-13 stimulation,"lot 1, Day 3, IMM method",5.3 fold
same,OAS2 (39263_at) expression fold change upon IL-13 stimulation,"lot 1, Day 3, IMM method",2.9 fold
same,OSF-2 (1451_s_at) expression fold change upon IL-13 stimulation,"lot 1, Day 3, IMM method",8.8 fold
same,"PAK2 (1560_g_at) expression, fold change upon IL-13 stimulation","lot 1, Day 3, IMM method",−2.1 fold
same,PLS1 (39951_at) expression fold change,"lot 1, Day 3, IMM method",2.9 fold
same,PLSCR1 (32775_r_at) expression fold change upon IL-13 stimulation,"lot 1, Day 3, IMM method",2.6 fold
same,PMCH (32005_at) expression fold change,"lot 1, Day 3, IMM method",3.3 fold
same,PSMB9 (38287_at) expression fold change upon IL-13 stimulation,"lot 1, Day 3, IMM method",2.3 fold
same,RASGRP1 (33291_at) expression fold change,"lot 1, Day 3, IMM method",2.6 fold
same,RIG-1 (59215_at) expression fold change,"lot 1, Day 3, IMM method",8.7 fold
same,SCYB10 (431_at) expression fold change upon IL-13 stimulation,"lot 1, Day 3, IMM method",3.9 fold
same,SCYB11 (35061_at) expression fold change upon IL-13 stimulation,"lot 1, Day 3, IMM method",7.9 fold
same,"SECTM1 (41045_at) expression, fold change upon IL-13 stimulation","lot 1, Day 3, IMM method",5.2 fold
same,SERPINB4 (1549_s_at) expression fold change,"lot 1, Day 3, IMM method",67.4 fold
same,SERPINB6 (34789_at) expression fold change,"lot 1, Day 3, IMM method",2.6 fold
same,SIAT1 (41352_at) expression fold change upon IL-13 stimulation,"lot 1, Day 3, IMM method",13.1 fold
same,"SLC26A4, pendrin (36376_at) expression fold change","lot 1, Day 3, IMM method",25.6 fold
same,"SSI-1 (41592_at) expression, fold change upon IL-13 stimulation","lot 1, Day 3, IMM method",5.8 fold
same,STAT1 (32860_g_at) expression fold change,"lot 1, Day 3, IMM method",2.4 fold
same,STAT1 (33338_at) expression fold change,"lot 1, Day 3, IMM method",5.7 fold
same,TGFB2 (1262_s_at) expression fold change upon IL-13 stimulation,"lot 1, Day 3, IMM method",2 fold
same,TGM2 (38404_at) expression fold change upon IL-13 stimulation,"lot 1, Day 3, IMM method",5 fold
same,"TSPAN-3 (38612_at) expression, fold change upon IL-13 stimulation","lot 1, Day 3, IMM method",2.5 fold
same,UBE2L6 (40505_at) expression fold change upon IL-13 stimulation,"lot 1, Day 3, IMM method",4.2 fold
same,"UFD1L (811_at) expression, fold change upon IL-13 stimulation","lot 1, Day 3, IMM method",2.3 fold
same,WARS (38121_at) expression fold change upon IL-13 stimulation,"lot 1, Day 3, IMM method",2.9 fold
same,"diubiquitin (39959_at) expression, fold change upon IL-13 stimulation","lot 1, Day 3, IMM method",14.4 fold
same,AA045020 (44676_at) expression change,"lot 1, Day 7, AI",−2.9
same,AA053401 (56234_r_at) expression change,"lot 1, Day 7, AI",−3.5
same,AA059445 46293_at expression change,"lot 1, Day 7, AI",−3.7
same,AA059458 (65626_at) expression change,"lot 1, Day 7, AI",−3.4
same,AA079839 (69289_at) expression change,"lot 1, Day 7, AI",−2.2
same,AA151265 (60939_i_at) expression change,"lot 1, Day 7, AI",−2.6
same,AA151265 (60940_r_at) expression change,"lot 1, Day 7, AI",−5.9
same,AA160156 (47578_at) expression change,"lot 1, Day 7, AI",−4.2
same,AA203423 (65699_at) expression change,"lot 1, Day 7, AI",−2.6
same,AA369887 (87539_i_at) expression change,"lot 1, Day 7, AI",−3.6
same,AA398155 (48999_at) expression change,"lot 1, Day 7, AI",−2
same,AA400080 (57282_at) expression change,"lot 1, Day 7, AI",−4.2
same,AA422178 (53747_at) expression change,"lot 1, Day 7, AI",−2.8
same,AA428312 (83988_at) expression change,"lot 1, Day 7, AI",−2
same,AA442232 (59109_at) expression change,"lot 1, Day 7, AI",−2.3
same,AA456099 (59567_at) expression change,"lot 1, Day 7, AI",−2.2
same,AA772055 46104_at expression change,"lot 1, Day 7, AI",−3
same,AA779895 59136_at expression change,"lot 1, Day 7, AI",−2.4
same,ABCC5 1932_at expression change,"lot 1, Day 7, AI",−3.6
same,AF052107 38262_at expression change,"lot 1, Day 7, AI",−4.1
same,AI050855 (64285_at) expression change,"lot 1, Day 7, AI",−3.6
same,AI432375 (49819_at) expression change,"lot 1, Day 7, AI",−4.5
same,AI669212 55436_at expression change,"lot 1, Day 7, AI",−2.5
same,AI740855 (83076_at) expression change,"lot 1, Day 7, AI",−2
same,AI761647 40191_s_at expression change,"lot 1, Day 7, AI",−3
same,AI770116 (70124_at) expression change,"lot 1, Day 7, AI",−2.3
same,AI798733 (64163_at) expression change,"lot 1, Day 7, AI",−3.6
same,AI829641 (84270_at) expression change,"lot 1, Day 7, AI",−3.3
same,AI923984 33546_at expression change,"lot 1, Day 7, AI",−4.6
